According to patent US20190231748A1, “COMPOSITION FOR VAGINA AND ANTIMICROBIAL AGENT COMBINATION FOR USE IN PREPARING COMPOSITION FOR VAGINA” (Shenzhen Eulikan Biotechnology Co., Ltd., priority 2016, published 2019):

What was measured:
Type in all cases: cell-based
[1] = tested on: nine strains of Candida albicans; test: Growth of Candida in enrichment broth after 24 hours, clinical strains; settings: agent alone, broth pH 4.5, 37° C. 24 hours
Text: b. Enrichment broth: which contained 1 percent of yeast extract powder, 9 percent of sucrose, 0.025 percent of manganese sulfate (MnSO4.4H2O), 0.058 percent of magnesium sulfate (MgSO4.7H2O), and 0.9 percent of lactic acid, the pH value of the broth was adjusted to 4.5, and the enrichment broth was sterilized for later use;
(2) Experimental groups: the requirements of aseptic operation technique were strictly followed so to prepare the sterile test tubes;
a. sodium benzoate group: each test tube contained 5 milliliters enrichment broth, and was added in 0.025 percent (weight/volume) of sodium benzoate;
b. 2-phenylethanol group: each test tube contained 5 milliliters enrichment broth, and was added in 0.050 percent (weight/volume) of 2-phenylethanol;
c. sodium propionate group: each test tube contained 5 milliliters enrichment broth, and was added in 0.125 percent (weight/volume) of sodium propionate;
d. “a group of the combinations of sodium benzoate and sodium propionate”: each test tube contained 5 milliliters enrichment broth, and was added in 0.025 percent (weight/volume) of sodium benzoate and 0.125 percent (weight/volume) of sodium propionate;
e. “a group of the combinations of sodium benzoate and 2-phenylethanol”: each test tube contained 5 milliliters enrichment broth, and was added in 0.025 percent (weight/volume) of sodium benzoate and 0.050 percent (weight/volume) of 2-phenylethanol;
f. “a group of the combinations of sodium propionate and 2-phenylethanol”: each test tube contained 5 milliliters enrichment broth, and was added in 0.125 percent (weight/volume) of sodium propionate and 0.050 percent (weight/volume) of 2-phenylethanol;
g. “a group of the combinations of sodium benzoate, sodium propionate and 2-phenylethanol”: each test tube contained 5 milliliters enrichment broth, and was added in 0.025 percent (weight/volume) of sodium benzoate, 0.125 percent (weight/volume) of sodium propionate and 0.050 percent (weight/volume) of 2-phenylethanol;
h. positive control: the control tube of enrichment broth without adding in 2-phenylethanol, sodium benzoate, and sodium propionate; but inoculated the suspension of Candida albicans;
i. negative control: the control tube of enrichment broth without adding in 2-phenylethanol, sodium benzoate, and sodium propionate; and without inoculating Candida albicans;
The requirements for aseptic operation technique were strictly followed to prepare the suspension of organism. The colonies of each strain of Candida albicans organism were diluted with physiological saline respectively. The turbidities of the suspensions of Candida albicans organism were adjusted to 0.5 MCF (about 10^8 CFU/ml) by a turbidimeter. 1 milliliter of the 0.5 MCF organism suspension was added into 9 milliliters of enrichment broth. Each suspension was diluted for ten times to contain 10^7 CFU/ml of organisms.
the requirements for aseptic technique were strictly followed to take 100 microliters of the prepared organism suspension respectively and to add the suspension into the test tubes from a to h as well as the positive control tube. No organism suspension was added into the negative control tube i.
The above tubes were cultured in a biochemical incubator at 37° C. for 24 hours. Then the growth of Candida in each tube was observed and recorded.
Remark: “+” means the growth of organisms; “−” means no growth of organisms.

[2] = tested on: Lactobacillus jensenii; test: Gram-stained smear of co-culture gel, Gram-positive rods (G+b); settings: for Smear G^+b: cultivated 32 hours
Text: (§1) 2.1 Experimental strains: one Lactococcus lactis strain and one Lactobacillus jensenii strain, both were clinical isolates.
(§2) The pH value was adjusted to 5.0.
(§3) 2.4 Experimental procedure: the test gel tubes containing different concentrations of antimicrobial agents, as shown in Tables 1 to 6 were inoculated with 100 microliters of Lactobacillus lactis suspension and 100 microliters of Lactobacillus jensenii suspension at the same time. The turbidities of both suspensions were 0.5 MCF. Then the tubes were cultivated at 37° C. and under 5 percent CO2 for 32 hours. Then the changes of the pH values of gels were tested. The gels were smeared, Gram stained, and microscopically examined for the morphology and quantity of bacteria.

[3] = tested on: Lactococcus lactis; test: Gram-stained smear of co-culture gel, Gram-positive cocci (G+c); settings: for Smear G^+c: cultivated 32 hours
Text: as §1, §2, §3

For CCC(=O)[O-].[Na+] [sodium propionate], the “number of the nine Candida albicans strains that grew” value ([1]; 0.125 percent (weight/volume)) was “six”, the “Smear G^+b” value ([2]; 0.1 % in test gel) was “G^+b+” and the “Smear G^+b” value ([2]; 0.2 % in test gel) was “G^+b+”. For the same molecule, the “Smear G^+b” value ([2]; 0.3 % in test gel) was “G^+b+”, the “Smear G^+b” value ([2]; 0.4 % in test gel) was “G^+b++” and the “inhibition effect on the growth of Lactobacillus” value ([2]; 0.4 to 0.6 percent) was “weaker inhibition effect”. The “Smear G^+b” value ([2]; 0.5 % in test gel) was “G^+b++”, the “Smear G^+b” value ([2]; 0.6 % in test gel) was “G^+b++” and the “Smear G^+b” value ([2]; 0.7 % in test gel) was “G^+b+”. For the same molecule, the “Smear G^+c” value ([3]; 0.1 % in test gel) was “G^+c+++”, the “Smear G^+c” value ([3]; 0.2 % in test gel) was “G^+c+++” and the “Smear G^+c” value ([3]; 0.3 % in test gel) was “G^+c+++”. The “Smear G^+c” value ([3]; 0.4 % in test gel) was “G^+c+”, the “inhibition effect on the growth of Lactococcus lactis” value ([3]; 0.4 to 0.6 percent) was “stronger inhibition effect” and the “Smear G^+c” value ([3]; 0.5 % in test gel) was “G^+c+”.
In the case of OCCc1ccccc1 [2-phenylethanol], the “number of the nine Candida albicans strains that grew” value ([1]; 0.050 percent (weight/volume)) is reported as “seven”, the “Smear G^+b” value ([2]; 0.15 % in test gel) is reported as “G^+b+” and the “Smear G^+b” value ([2]; 0.2 % in test gel) is reported as “G^+b+”. The “Smear G^+b” value ([2]; 0.25 % in test gel) was “G^+b+”, the “Smear G^+b” value ([2]; 0.3 % in test gel) was “G^+b+” and the “Smear G^+b” value ([2]; 0.35 % in test gel) was “G^+b+++”. For the same molecule, the “inhibition effect on the growth of Lactobacillus” value ([2]; 0.35 to 0.45 percent) was “weaker inhibition effect”, the “Smear G^+b” value ([2]; 0.4 % in test gel) was “G^+b++” and the “Smear G^+b” value ([2]; 0.45 % in test gel) was “G^+b++”. The “Smear G^+b” value ([2]; 0.5 % in test gel) was “G^+b+”, the “Smear G^+c” value ([3]; 0.15 % in test gel) was “G^+c+++” and the “Smear G^+c” value ([3]; 0.2 % in test gel) was “G^+c+++”. For the same molecule, the “Smear G^+c” value ([3]; 0.25 % in test gel) was “G^+c+++”, the “Smear G^+c” value ([3]; 0.3 % in test gel) was “G^+c+++” and the “Smear G^+c” value ([3]; 0.35 % in test gel) was “G^+c+~+”. The “inhibition effect on the growth of Lactococcus lactis” value ([3]; 0.35 to 0.45 percent) was “stronger inhibition effect” and the “Smear G^+c” value ([3]; 0.4 % in test gel) was “G^+c+”.
